# Test results from US11149031B2, “Substituted N-(3-fluoropropyl)-pyrrolidine compounds, processes for their preparation and therapeutic uses thereof” (SANOFI, priority 2016, dated 2021).
# How the values were obtained:
# [1] = molecular target: His6-ERα298-554 WT (ERα ligand-binding domain) (Homo sapiens (Human), UniProt P03372); test: Test A: biochemical antagonist activity, LanthaScreen TR-FRET ERα coactivator assay, WT; conditions: asterisk (*): protocol using 10 nM estradiol; read-out: Antagonism WT IC50
# Chain of His6-ERα298-554 WT (ERα ligand-binding domain) (P03372 298-554): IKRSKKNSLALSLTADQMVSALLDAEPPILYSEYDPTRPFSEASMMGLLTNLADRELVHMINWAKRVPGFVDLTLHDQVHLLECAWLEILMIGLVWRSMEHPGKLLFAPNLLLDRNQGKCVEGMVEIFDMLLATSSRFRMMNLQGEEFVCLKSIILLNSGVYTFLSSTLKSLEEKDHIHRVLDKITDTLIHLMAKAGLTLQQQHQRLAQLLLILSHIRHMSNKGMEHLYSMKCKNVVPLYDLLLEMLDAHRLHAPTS
# Method in brief: (§1)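 His6-ERα LBD (0.5 nM) with 0.5 nM Tb-anti-His6 antibody, 250 nM PGC1a peptide and 3 nM (or 10 nM) estradiol in 100 mM potassium phosphate pH 7.4 with 5 mM DTT, incubated overnight at room temperature with compound.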
# [2] = tested on: MCF7 cells (breast tumor cells) WT; test: Test B: cell proliferation/viability assay (CellTiter-Glo) on MCF7 WT; type: cell-based; conditions: Homo sapiens, MCF7, 168 h, 7 days of compound exposure
# Method in brief: (§2)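 Compound exposure lasted 7 days (3-0.000001 μM final, 9 points) in phenol red-free MEM with 5% charcoal dextran-stripped FBS. The mutant lines grew without estradiol. Luminescent signal, minus medium-only background, was expressed as percent of untreated cells.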
# [3] = tested on: MCF7 cells expressing mutant estrogen receptor Tyr 537 Ser; test: Test B: cell proliferation/viability assay (CellTiter-Glo) on MCF7 Tyr 537 Ser mutant; type: cell-based; conditions: Homo sapiens, MCF7, 168 h, MCF7 cells expressing ER Tyr 537 Ser mutant, 7 days of compound exposure, read-out: proliferation MCF7 Y537S IC50
# Method in brief: as §2
# [4] = tested on: MCF7 cells expressing mutant estrogen receptor Asp 538 Gly; test: Test B: cell proliferation/viability assay (CellTiter-Glo) on MCF7 Asp 538 Gly mutant; type: cell-based; conditions: Homo sapiens, MCF7, 168 h, MCF7 cells expressing ER Asp 538 Gly mutant, 7 days of compound exposure, read-out: proliferation MCF7 D538G IC50
# Method in brief: as §2
# [5] = molecular target: His6-ERα298-554 D538G mutant (ERα ligand-binding domain) (Homo sapiens (Human), UniProt P03372, D538G); test: Test A: biochemical antagonist activity, LanthaScreen TR-FRET ERα coactivator assay, D538G mutant; conditions: asterisk (*): protocol using 10 nM estradiol; read-out: Antagonism D538G IC50
# Chain of His6-ERα298-554 D538G mutant (ERα ligand-binding domain) (P03372 298-554 D538G): as the sequence (P03372 298-554) above, with D241G counted along it
# Method in brief: as §1
# [6] = molecular target: ERα in MCF7 cells (Homo sapiens (Human), UniProt P03372); test: Test C: estrogen receptor degradation activity, ERα in cell western assay in MCF7 cells; type: cell-based; conditions: for DC50: 4 hours post compound addition, ERα in cell western, read-out: Degradation IC50; for % Degradation at 3 μM: 4 hours, relative to fulvestrant
# Chain of ERα in MCF7 cells (P03372 whole entry): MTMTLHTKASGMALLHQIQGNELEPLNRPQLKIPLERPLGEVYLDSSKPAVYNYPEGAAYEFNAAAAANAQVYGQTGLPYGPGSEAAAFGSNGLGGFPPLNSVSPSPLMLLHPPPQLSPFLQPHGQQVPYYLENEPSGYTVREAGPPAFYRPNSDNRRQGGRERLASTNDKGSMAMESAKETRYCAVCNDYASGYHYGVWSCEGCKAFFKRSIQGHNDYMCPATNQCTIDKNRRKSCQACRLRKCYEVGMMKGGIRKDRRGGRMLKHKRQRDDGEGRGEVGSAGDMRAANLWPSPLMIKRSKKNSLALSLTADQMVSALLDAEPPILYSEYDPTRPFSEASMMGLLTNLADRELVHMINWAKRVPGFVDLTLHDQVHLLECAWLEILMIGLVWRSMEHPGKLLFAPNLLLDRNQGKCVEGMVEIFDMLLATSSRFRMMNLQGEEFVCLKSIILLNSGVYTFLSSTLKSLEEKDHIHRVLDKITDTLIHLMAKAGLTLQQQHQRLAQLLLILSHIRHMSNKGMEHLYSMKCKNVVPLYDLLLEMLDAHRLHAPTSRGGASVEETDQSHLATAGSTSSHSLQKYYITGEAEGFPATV
# Method in brief: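 Steps: seed MCF7 in phenol red-free medium containing 5% charcoal-dextran stripped FBS; next day add compound, final 3–0.000018 μM; after 4 h fix with 5% formalin plus 0.1% Triton; stain ERα overnight, then secondary at 37 °C for 60 min with Syto-64 at 2 μM; scan green and red intensities.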
# [7] = molecular target: His6-ERα298-554 Y537S mutant (ERα ligand-binding domain) (Homo sapiens (Human), UniProt P03372, Y537S); test: Test A: biochemical antagonist activity, LanthaScreen TR-FRET ERα coactivator assay, Y537S mutant; conditions: asterisk (*): protocol using 10 nM estradiol; read-out: Antagonism Y537S IC50
# Chain of His6-ERα298-554 Y537S mutant (ERα ligand-binding domain) (P03372 298-554 Y537S): as the sequence (P03372 298-554) above, with Y240S counted along it
# Method in brief: as §1
SMILES,IC50 [1] [nM],IC50 [2] [nM],IC50 [3] [nM],IC50 [4] [nM],IC50 [5] [nM],DC50 [6] [nM],% Degradation at 3 μM [6] [%],IC50 [7] [nM]
"CCOc1ccc(C2=C(c3cnc(O[C@H]4CCN(CCCF)C4)nc3)c3ccc(O)cc3CCC2)c(F)n1 [Example 251, 6-(6-ethoxy-2-fluoro-3-pyridyl)-5-[2-[(3S)-1-(3-fluoropropyl)pyrrolidin-3-yl]oxypyrimidin-5-yl]-8,9-dihydro-7H-benzo[7]annulen-2-ol]",4,0.4,5,0.5,104,0.5,89,57
"CCOc1ccc(C2=C(c3ccc(O[C@H]4CCN(CCCF)C4)nc3)c3ccc(O)c(F)c3CCC2)c(F)n1 [Example 252, 6-(6-ethoxy-2-fluoro-3-pyridyl)-1-fluoro-5-[6-[(3S)-1-(3-fluoropropyl)pyrrolidin-3-yl]oxy-3-pyridyl]-8,9-dihydro-7H-benzo[7]annulen-2-ol]",0.7,0.6,9,0.4,8,0.2,86,9
"Oc1ccc2c(c1)CCCC(c1ccc(OC(F)(F)F)cc1)=C2c1ccc(O[C@H]2CCN(CCCF)C2)nc1 [Example 253, 5-[6-[(3S)-1-(3-fluoropropyl)pyrrolidin-3-yl]oxy-3-pyridyl]-6-[4-(trifluoromethoxy)phenyl]-8,9-dihydro-7H-benzo[7]annulen-2-ol]",7,0.1,2,0.1,155,0.2,85,95
"CC/C(=C(/c1ccc(O[C@H]2CCN(CCCF)C2)cc1)c1ccc2[nH]ncc2c1)c1ccc(F)cc1Cl [Example 255, 5-[(E)-2-(2-chloro-4-fluoro-phenyl)-1-[4-[(3S)-1-(3-fluoropropyl)pyrrolidin-3-yl]oxyphenyl]but-1-enyl]-1H-indazole]",15,0.1,6,0.9,190,0.6,92,140
"Oc1ccc(C2Sc3cc(O)ccc3OC2c2ccc(O[C@H]3CCN(CCCF)C3)cc2)cc1 (stereo partly drawn) [Example 258, 2-[4-[(3S)-1-(3-fluoropropyl)pyrrolidin-3-yl]oxyphenyl]-3-(4-hydroxyphenyl)-2,3-dihydro-1,4-benzoxathiin-6-ol]",203,6,17,1,> 4000,5,77,2420
